Drawing on BindingDB's records for doi:10.1021/acs.jmedchem.9b00963 (Hong Kong Polytechnic University, 2019), this text covers EC50 for 42 compounds.

Bounds are passed on as bounds.

The nature of data set [1]: Inhibition of BCRP in human MCF7/MX100 cells assessed as reversal of topotecan resistance after 5 days by MTS/PMS assay.
The nature of data set [2]: Inhibition of BCRP (unknown origin) transfected in HEK293/R2 cells assessed as reversal of topotecan resistance after 5 days by MTS/PMS assay.
Data set [3] is described as follows: Inhibition of P-gp (unknown origin) expressed in human LCC6MDR cells assessed as reversal of paclitaxel resistance after 5 days by MTS/PMS assay.

`O=c1cc(-c2ccccc2)oc2cc(OCCOCCn3cc(COCCOc4ccc5c(=O)cc(-c6ccccc6)oc5c4)nn3)ccc12`: the EC50 was 308 nM in data set [1], 195 nM in data set [2] and more than 1000 nM in data set [3].

For the compound `Cc1ccc2oc(-c3ccc(OCCCCc4cn(CCOCCOc5ccc(-c6cc(=O)c7cc(F)ccc7o6)cc5)nn4)cc3)cc(=O)c2c1`, the EC50 was 64 nM in data set [1] and 15 nM in data set [2].

For `Cc1ccc2oc(-c3ccc(OCCCCc4cn(CCN(CCOc5ccc6c(=O)cc(-c7ccccc7)oc6c5)Cc5ccccc5)nn4)cc3)cc(=O)c2c1`, the EC50 is 372 nM in data set [1], 543 nM in data set [2] and more than 1000 nM in data set [3].

Consider `O=c1cc(-c2ccccc2)oc2cc(OCCOCc3cn(CCOCCOCCOc4ccc(-c5oc6ccccc6c(=O)c5OCc5ccccc5)cc4)nn3)ccc12`, for which the concentration giving a half-maximal response (EC50) in data set [1] turned out to be 25 nM; in data set [2], 38 nM; in data set [3], 383 nM.

As for `COC(=O)c1cccc(COc2c(-c3ccc(OCCOCCOCCn4cc(CCCOc5ccc(-c6cc(=O)c7ccc(F)cc7o6)cc5)nn4)cc3)oc3ccccc3c2=O)c1`, the EC50 in data set [1] came to 2.3 nM; in data set [2] it was 2 nM; in data set [3] it was 246 nM.

As for `COC(=O)c1cccc(COc2c(-c3ccc(OCCOCCn4cc(-c5ccc(-c6cn(CCOCCOc7ccc(-c8oc9ccccc9c(=O)c8OCc8cccc(C(=O)OC)c8)cc7)nn6)cc5)nn4)cc3)oc3ccccc3c2=O)c1`, the EC50 was 27 nM in data set [1], 14 nM in data set [2] and more than 1000 nM in data set [3].

Take `O=c1cc(-c2ccccc2)oc2cc(OCCCc3cn(CCOCCOCCOc4ccc(-c5oc6ccccc6c(=O)c5OCc5ccccc5)cc4)nn3)ccc12`: the EC50 in data set [1] is 78 nM; in data set [2] it was 60 nM; in data set [3], 259 nM.

Regarding `COC(=O)c1cccc(COc2c(-c3ccc(OCCOCCn4cc(CN(C)CCN(C)Cc5cn(CCOCCOc6ccc(-c7oc8ccccc8c(=O)c7OCc7cccc(C(=O)OC)c7)cc6)nn5)nn4)cc3)oc3ccccc3c2=O)c1`, the EC50 is 84 nM in data set [1], 133 nM in data set [2] and more than 1000 nM in data set [3].

With `O=c1cc(-c2ccc(OCCOCCn3cc(CCCCOc4ccc5c(=O)cc(-c6ccccc6)oc5c4)nn3)cc2)oc2ccccc12`, the figures for the EC50 in data set [1], in data set [2] and in data set [3] were 25 nM, 52 nM and 321 nM, respectively.

Regarding `O=c1cc(-c2ccc(OCCOCCOCCn3cc(CCCCOc4ccc5c(=O)cc(-c6ccccc6)oc5c4)nn3)cc2)oc2ccccc12`, the EC50 in data set [1] was 18 nM; in data set [2], 47 nM; in data set [3], 360 nM.

Regarding `COC(=O)c1cccc(COc2c(-c3ccc(OCCOCCOCCn4cc(-c5cccc(-c6cn(CCOCCOCCOc7ccc(-c8oc9ccccc9c(=O)c8OCc8cccc(C(=O)OC)c8)cc7)nn6)c5)nn4)cc3)oc3ccccc3c2=O)c1`, the EC50 in data set [1] was 13 nM; in data set [2], 2.8 nM; in data set [3], more than 1000 nM.

Take `COC(=O)c1cccc(COc2c(-c3ccc(OCCOCCOCCn4cc(CCCOc5ccc6c(=O)cc(-c7ccccc7)oc6c5)nn4)cc3)oc3ccccc3c2=O)c1`: the EC50 was 7 nM in data set [1], 3.5 nM in data set [2] and 414 nM in data set [3].

`O=c1cc(-c2ccccc2)oc2cc(OCCN(Cc3ccccc3)Cc3cn(CCOCCOCCOc4ccc(-c5cc(=O)c6cc(F)ccc6o5)cc4)nn3)ccc12`: the EC50 in data set [1] came to 20 nM; in data set [2] it was 27 nM; in data set [3], 334 nM.

`Cc1ccc2oc(-c3ccc(OCCCCc4cn(CCOCCOCCOc5ccc(-c6oc7ccccc7c(=O)c6OCc6ccccc6)cc5)nn4)cc3)cc(=O)c2c1`: the figures for the EC50 in data set [1], in data set [2] and in data set [3] were 20 nM, 24 nM and 422 nM, respectively.

Turning to `COC(=O)c1cccc(COc2c(-c3ccc(OCCOCCn4cc(CCCCOc5ccc6c(=O)cc(-c7ccccc7)oc6c5)nn4)cc3)oc3ccccc3c2=O)c1`, the figures for the EC50 in data set [2] and in data set [3] were 5.2 nM and 325 nM, respectively.

Take `O=c1cc(-c2ccc(OCCCc3cn(CCOCCOCCOc4ccc(-c5oc6ccccc6c(=O)c5OCc5ccccc5)cc4)nn3)cc2)oc2cc(F)ccc12`: the EC50 was 47 nM in data set [1], 25 nM in data set [2] and 344 nM in data set [3].

On to `COC(=O)c1cccc(COc2c(-c3ccc(OCCOCCOCCn4cc(CCCCOc5ccc6c(=O)cc(-c7ccccc7)oc6c5)nn4)cc3)oc3ccccc3c2=O)c1`, for which, in data set [3], the EC50 amounted to 285 nM.

In the case of `O=c1cc(-c2ccccc2)oc2cc(OCCCc3cn(CCOCCOc4ccc5c(=O)cc(-c6ccccc6)oc5c4)nn3)ccc12`, the EC50 in data set [1] stood at 22 nM; in data set [2], 42 nM; in data set [3] it was 490 nM.

Turning to `O=c1cc(-c2ccc(OCCOCCOCCn3cc(CCCOc4ccc5c(=O)cc(-c6ccccc6)oc5c4)nn3)cc2)oc2ccccc12`, the figures for the EC50 in data set [1], in data set [2] and in data set [3] were 203 nM, 52 nM and 384 nM, respectively.

For the compound `O=c1cc(-c2ccccc2)oc2cc(OCCCc3cn(CCOCCOCCOc4ccc5c(=O)cc(-c6ccccc6)oc5c4)nn3)ccc12`, the EC50 in data set [1] was 177 nM; in data set [2], 57 nM; in data set [3], 515 nM.

On to `O=c1cc(-c2ccc(OCCOCCOCCn3cc(CCCOc4ccc(-c5cc(=O)c6ccc(F)cc6o5)cc4)nn3)cc2)oc2ccccc12`, for which the EC50 was determined as 7.4 nM in data set [1], 24 nM in data set [2] and 255 nM in data set [3].

Consider `O=c1cc(-c2ccc(OCCOCCOCCn3cc(COCCOc4ccc5c(=O)cc(-c6ccccc6)oc5c4)nn3)cc2)oc2ccccc12`, for which the EC50 in data set [1] worked out at 340 nM; in data set [2] it was 303 nM; in data set [3], 963 nM.

On to `Cc1ccc2oc(-c3ccc(OCCCCc4cn(CCOCCOCCOc5ccc(-c6cc(=O)c7cc(C)ccc7o6)cc5)nn4)cc3)cc(=O)c2c1`, for which the EC50 in data set [1] is 230 nM; in data set [2], 54 nM; in data set [3] it was 526 nM.

In the case of `Cc1ccc2oc(-c3ccc(OCCCCc4cn(CCOCCOc5ccc(-c6cc(=O)c7ccccc7o6)cc5)nn4)cc3)cc(=O)c2c1`, the figures for the EC50 in data set [1], in data set [2] and in data set [3] were 33 nM, 67 nM and 370 nM, respectively.

For `O=c1cc(-c2ccccc2)oc2cc(OCCOCCOCCn3cc(COCCOc4ccc5c(=O)cc(-c6ccccc6)oc5c4)nn3)ccc12`, the EC50 in data set [1] was 59 nM; in data set [2], 145 nM; in data set [3], 928 nM.

As for `O=c1cc(-c2ccc(OCCCc3cn(CCOCCOCCOc4ccc5c(=O)cc(-c6ccccc6)oc5c4)nn3)cc2)oc2cc(F)ccc12`, the EC50 in data set [1] was found to be 27 nM; in data set [2] it was 28 nM; in data set [3], 89 nM.

On to `O=c1cc(-c2ccccc2)oc2cc(OCCN(Cc3ccccc3)Cc3cn(CCOCCOCCOc4ccc(-c5oc6ccccc6c(=O)c5OCc5ccccc5)cc4)nn3)ccc12`, for which the EC50 in data set [1] worked out at 69 nM; in data set [2] it was 156 nM; in data set [3] it was 983 nM.

For `COC(=O)c1cccc(COc2c(-c3ccc(OCCOCCOCCn4cc(COCCOc5ccc6c(=O)cc(-c7ccccc7)oc6c5)nn4)cc3)oc3ccccc3c2=O)c1`, in data set [3], the EC50 was determined as 313 nM.

Turning to `Cc1ccc2oc(-c3ccc(OCCOCCOCCn4cc(CCCCOc5ccc6c(=O)cc(-c7ccccc7)oc6c5)nn4)cc3)cc(=O)c2c1`, the values for the EC50 in data set [1], in data set [2] and in data set [3] were 46 nM, 33 nM and 198 nM, respectively.

With `O=c1cc(-c2ccc(OCCOCCn3cc(COCCOc4ccc5c(=O)cc(-c6ccccc6)oc5c4)nn3)cc2)oc2ccccc12`, the EC50 in data set [1] was 235 nM; in data set [2] it was 303 nM; in data set [3], 960 nM.

Consider `Cc1ccc2oc(-c3ccc(OCCCCc4cn(CCOCCOCCOc5ccc(-c6cc(=O)c7ccccc7o6)cc5)nn4)cc3)cc(=O)c2c1`, for which the values for the EC50 in data set [1], in data set [2] and in data set [3] were 160 nM, 285 nM and more than 1000 nM, respectively.

With `Cc1ccc2oc(-c3ccc(OCCCCc4cn(CCOCCOCCOc5ccc6c(=O)cc(-c7ccccc7)oc6c5)nn4)cc3)cc(=O)c2c1`, the EC50 in data set [1] turned out to be 151 nM.

Turning to `O=c1cc(-c2ccc(OCCCc3cn(CCOCCOCCOc4ccc(-c5cc(=O)c6cc(F)ccc6o5)cc4)nn3)cc2)oc2cc(F)ccc12`, the EC50 came out at 4 nM in data set [1], 3.1 nM in data set [2] and 161 nM in data set [3].

For the compound `O=c1cc(-c2ccccc2)oc2cc(OCCCc3cn(CCOCCOCCOc4ccc(-c5cc(=O)c6cc(F)ccc6o5)cc4)nn3)ccc12`, the EC50 in data set [1] stood at 98 nM; in data set [2], 38 nM; in data set [3], 328 nM.

With `O=c1cc(-c2ccc(OCCOCCn3cc(CN(Cc4ccccc4)Cc4cn(CCOCCOc5ccc(-c6cc(=O)c7ccccc7o6)cc5)nn4)nn3)cc2)oc2ccccc12`, the EC50 stood at 205 nM in data set [1] and 670 nM in data set [3].

Consider `COC(=O)c1cccc(COc2c(-c3ccc(OCCOCCOCCn4cc(CCCCOc5ccc(-c6cc(=O)c7cc(C)ccc7o6)cc5)nn4)cc3)oc3ccccc3c2=O)c1`, for which the EC50 in data set [3] stood at 420 nM.

Consider `COC(=O)c1cccc(COc2c(-c3ccc(OCCOCCn4cc(COCCOc5ccc6c(=O)cc(-c7ccccc7)oc6c5)nn4)cc3)oc3ccccc3c2=O)c1`, for which the EC50 in data set [1] was 18 nM; in data set [3], 437 nM.

For `O=c1cc(-c2ccc(OCCCc3cn(CCOCCOc4ccc(-c5cc(=O)c6ccccc6o5)cc4)nn3)cc2)oc2ccccc12`, in data set [3], the EC50 stood at 201 nM.

On to `COC(=O)c1cccc(COc2c(-c3ccc(OCCOCCn4cc(CCCCOc5ccc(-c6cc(=O)c7cc(C)ccc7o6)cc5)nn4)cc3)oc3ccccc3c2=O)c1`, for which the EC50 in data set [3] came to 430 nM.

As to `O=c1cc(-c2ccc(OCCOCCn3cc(CCCOc4ccc(-c5cc(=O)c6ccc(F)cc6o5)cc4)nn3)cc2)oc2ccccc12`, the results for the EC50 in data set [2] and in data set [3] were 7.2 nM and 155 nM, respectively.

`Cc1ccc2oc(-c3ccc(OCCOCCOCCn4cc(CN(Cc5ccccc5)Cc5cn(CCOCCOCCOc6ccc(-c7cc(=O)c8cc(C)ccc8o7)cc6)nn5)nn4)cc3)cc(=O)c2c1`: the half-maximal effective concentration (EC50) in data set [1] worked out at 46 nM; in data set [3] it was 763 nM.

`O=c1cc(-c2ccccc2)oc2cc(OCCOCc3cn(CCOCCOc4ccc(-c5oc6ccccc6c(=O)c5OCc5ccccc5)cc4)nn3)ccc12`: in data set [3], the EC50 amounted to 345 nM.
